# Reference: patent publication US20260374754A1, “N-((ISOQUINOLIN-6-YL)METHYL)-1H-PYRAZOLE-4-CARBOXAMIDE DERIVATIVES AS PLASMA KALLIKREIN INHIBITORS FOR THE TREATMENT OF HEREDITARY ANGIODEMA” (Takeda Pharmaceutical Company Limited, priority 2022, published 2026)
# Counter-ions that a name gives are not always drawn.
# Target: human activated kallikrein enzyme (Homo sapiens, UniProt P03952)
# Assay: Inhibition of human activated plasma kallikrein, fluorogenic PFR-AMC substrate, 500 pM enzyme format
# Assay type: biochemical
# Conditions: 500 pM activated kallikrein; 300 μM PFR-AMC; 30 min preincubation; 10 min room temperature; pH 7.5; read-out: Primary Dose Response Assay: Average EC50
# How it was run: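 500 pM activated kallikrein preincubated 30 min at room temperature with inhibitors in pH 7.5 Tris/EDTA/NaCl buffer with PEG-400 and Triton X-100. Reaction started with 300 μM PFR-AMC, run 10 min at room temperature; AMC fluorescence read at ex 380/em 460 nm.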
# Sequence of human activated kallikrein enzyme (P03952 391-638 limits assumed): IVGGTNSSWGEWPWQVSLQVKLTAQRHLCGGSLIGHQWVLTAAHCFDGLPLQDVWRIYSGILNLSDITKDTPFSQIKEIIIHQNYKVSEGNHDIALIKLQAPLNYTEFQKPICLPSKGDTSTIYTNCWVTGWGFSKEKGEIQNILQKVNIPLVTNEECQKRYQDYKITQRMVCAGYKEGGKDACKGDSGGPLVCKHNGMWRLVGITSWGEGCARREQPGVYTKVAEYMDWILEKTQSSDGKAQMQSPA
# Sequence of human activated kallikrein enzyme (P03952 20-390 partner limits assumed): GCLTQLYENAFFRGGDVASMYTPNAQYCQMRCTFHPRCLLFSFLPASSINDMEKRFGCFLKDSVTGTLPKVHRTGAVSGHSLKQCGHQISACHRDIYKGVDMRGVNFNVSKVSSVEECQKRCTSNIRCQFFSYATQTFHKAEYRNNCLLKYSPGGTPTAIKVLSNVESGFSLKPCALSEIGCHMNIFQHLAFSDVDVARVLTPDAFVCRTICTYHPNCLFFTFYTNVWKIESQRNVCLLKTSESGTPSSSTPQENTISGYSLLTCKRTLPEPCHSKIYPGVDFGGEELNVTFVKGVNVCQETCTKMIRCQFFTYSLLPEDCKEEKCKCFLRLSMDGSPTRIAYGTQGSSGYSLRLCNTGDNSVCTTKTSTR
row,Compound,EC50
1,"COc1ccc2cc(Cn3cc(C(=O)NCc4c(C)cc5c(N)nccc5c4C)cn3)cnc2c1 [Example 110, N-((1-amino-5,7-dimethylisoquinolin-6-yl)methyl)-1-((7-methoxyquinolin-3-yl)methyl)-1H-pyrazole-4-carboxamide]",1 to 10 nM
2,"Cc1cc2c(N)nccc2c(C)c1CNC(=O)c1cnn(Cc2nc3ccccc3s2)c1 [Example 76, N-((1-amino-5,7-dimethylisoquinolin-6-yl)methyl)-1-(benzo[d]thiazol-2-ylmethyl)-1H-pyrazole-4-carboxamide]",10 to 100 nM
3,"Cc1c(CNC(=O)c2cnn(Cc3ccccc3)c2)c(C2CC2)cc2c(N)nccc12 [Example 174, N-((1-amino-7-cyclopropyl-5-methylisoquinolin-6-yl)methyl)-1-benzyl-1H-pyrazole-4-carboxamide]",10 to 100 nM
4,"Cc1ccc2cc(Cn3cc(C(=O)NCc4c(C)cc5c(N)nccc5c4C)cn3)ccc2n1 [Example 64, N-((1-amino-5,7-dimethylisoquinolin-6-yl)methyl)-1-((2-methylquinolin-6-yl)methyl)-1H-pyrazole-4-carboxamide]",< 1 nM
5,"Cc1cc2c(N)nccc2c(C)c1CNc1nccc2c1nnn2Cc1cn2cc(C3CC3)ccc2n1 [Example 254, 6-(((1-((6-cyclopropylimidazo[1,2-a]pyridin-2-yl)methyl)-1H-[1,2,3]triazolo[4,5-c]pyridin-4-yl)amino)methyl)-5,7-dimethylisoquinolin-1-amine]",> 1000 nM
6,"Cc1c(CNC(=O)c2cnn(Cc3cn4cc(C5CC5)ccc4n3)c2)c(C)c2ccnc(N)c2c1C [Example 191, N-((1-amino-5,7,8-trimethylisoquinolin-6-yl)methyl)-1-((6-cyclopropylimidazo[1,2-a]pyridin-2-yl)methy1)-1H-pyrazole-4-carboxamide]",10 to 100 nM
7,"COc1c(F)cccc1Cc1ccc(Cn2cc(C(=O)NCc3c(C)cc4c(N)nccc4c3C)cn2)cc1 [Example 116, N-((1-amino-5,7-dimethylisoquinolin-6-yl)methyl)-1-(4-(3-fluoro-2-methoxybenzyl)benzyl)-1H-pyrazole-4-carboxamide]",1 to 10 nM
8,"Cc1cc2c(N)nccc2c(C)c1CNC(=O)c1cnn(Cc2ncccn2)c1 [Example 83, N-((1-amino-5,7-dimethylisoquinolin-6-yl)methyl)-1-(pyrimidin-2-ylmethyl)-1H-pyrazole-4-carboxamide]",100 to 1000 nM
9,"Cc1cc2c(N)nccc2c(C)c1CNC(=O)c1cnn(Cc2cn3c(C)c(C4CC4)ccc3n2)c1 [Example 104, N-((1-amino-5,7-dimethylisoquinolin-6-yl)methyl)-1-((6-cyclopropyl-5-methylimidazo[1,2-a]pyridin-2-yl)methyl)-1H-pyrazole-4-carboxamide]",< 1 nM
10,"Cc1cc2c(N)nccc2c(C)c1CNC(=O)c1cnc(Cc2cn3cc(C4CC4)ccc3n2)s1 [Example 198, N-((1-amino-5,7-dimethylisoquinolin-6-y1)methyl)-2-((6-cyclopropylimidazo[1,2-a]pyridin-2-yl)methyl)thiazole-5-carboxamide]",1 to 10 nM
11,"CCOC(=O)[C@H]1[C@@H]2CN(C(=O)Cc3ccc(Cn4cc(C(=O)NCc5c(C)cc6c(N)nccc6c5C)cn4)cc3)C[C@@H]21 [Example 212, ethyl (1R,SS,6r)-3-(2-(4-((4-(((1-amino-5,7-dimethylisoquinolin-6-y1)methyl)carbamoyl)-1H-pyrazol-1-yl)methyl)phenyl)acetyl)-3-azabicyclo[3.1.0]hexane-6-carboxylate]",10 to 100 nM
12,"Cc1ccc2nc(Cn3cc(C(=O)NCc4c(C)cc5c(N)nccc5c4C)cn3)cn2c1 [Example 10, N-((1-amino-5,7-dimethylisoquinolin-6-yl)methyl)-1-((6-methylimidazo[1,2-a]pyridin-2-yl)methyl)-1H-pyrazole-4-carboxamide]",< 1 nM
13,"Cc1cc2c(N)nccc2c(C)c1CNc1cc(OCc2cn3cc(C4CC4)cnc3n2)nc(CCC(=O)O)n1 [Example 294, 3-(4-(((1-amino-5,7-dimethylisoquinolin-6-yl)methyl)amino)-6-((6-cyclopropylimidazo[1,2-a]pyrimidin-2-yl)methoxy)pyrimidin-2-yl)propanoic acid]",< 1 nM
14,"Cc1ccc2nc(Cn3cc(C(=O)NCc4c(C)cc5c(N)nccc5c4C)cn3)nn2c1 [Example 15, N-((1-amino-5,7-dimethylisoquinolin-6-yl)methyl)-1-((6-methyl-[1,2,4]triazolo[1,5-a]pyridin-2-yl)methyl)-1H-pyrazole-4-carboxamide]",< 1 nM
15,"Cc1ccc2nc(Cn3cc(C(=O)N(C)Cc4c(C)cc5c(N)nccc5c4C)cn3)cn2c1 [Example 128, N-((1-amino-5,7-dimethylisoquinolin-6-yl)methyl)-N-methyl-1-((6-methylimidazo[1,2-a]pyridin-2-yl)methyl)-1H-pyrazole-4-carboxamide]",10 to 100 nM
16,"C=Cc1cnc2ccc(Cn3cc(C(=O)NCc4c(C)cc5c(N)nccc5c4C)cn3)cc2c1 [Example 123, N-((1-amino-5,7-dimethylisoquinolin-6-yl)methyl)-1-((3-vinylquinolin-6-yl)methyl)-1H-pyrazole-4-carboxamide]",< 1 nM
17,"Cc1cc2c(N)nccc2c(C)c1CNC(=O)c1cnn(Cc2ccc(CCn3cccn3)cc2)c1 [Example 48, 1-(4-(2-(1H-pyrazol-1-yl)ethyl)benzyl)-N-((1-amino-5,7-dimethylisoquinolin-6-yl)methyl)-1H-pyrazole-4-carboxamide]",1 to 10 nM
18,"Cc1cc2c(N)nccc2c(C)c1CNC(=O)c1cnn(Cc2ccc(N(C)C(=O)N(C)C)cc2)c1 [Example 22, N-((1-amino-5,7-dimethylisoquinolin-6-yl)methyl)-1-(4-(1,3,3-trimethylureido)benzyl)-1H-pyrazole-4-carboxamide]",1 to 10 nM
19,"Cc1ccccc1Cn1cc(C(=O)NCc2c(C)cc3c(N)nccc3c2C)cn1 [Example 40, N-((1-amino-5,7-dimethylisoquinolin-6-yl)methyl)-1-(2-methylbenzyl)-1H-pyrazole-4-carboxamide]",100 to 1000 nM

# Other lines, results leading:
row,EC50,Compound
1,< 1 nM,"Cc1cc2c(N)nccc2c(C)c1CNc1cc(OCc2ccc(Cn3ccc(C4CC4)n3)cc2)cnn1 [Example 431, 6-(((5-((4-((3-cyclopropyl-1H-pyrazol-1-yl)methyl)benzyl)oxy)pyridazin-3-yl)amino)methyl)-5,7-dimethylisoquinolin-1-amine]"
2,1 to 10 nM,"Cc1cc2c(N)nccc2c(C)c1CNc1cc(OCc2nc3ccc(C4CC4)cn3n2)nc(C(=O)O)n1 [Example I-486, 4-(((1-amino-5,7-dimethylisoquinolin-6-yl)methyl)amino)-6-((6-cyclopropyl-[1,2,4]triazolo[1,5-a]pyridin-2-yl)methoxy)pyrimidine-2-carboxylic acid]"
3,1 to 10 nM,"Cc1cc2c(N)nccc2c(C)c1CNc1cc(NCc2ccc(OCc3ccccn3)cc2)ncn1 [Example 349, N^4-((1-amino-5,7-dimethylisoquinolin-6-yl)methyl)-N^6-(4-(pyridin-2-ylmethoxy)benzyl)pyrimidine-4,6-diamine, formic acid salt]"
4,< 1 nM,"Cc1cc2c(N)nccc2c(C)c1CNc1cc(NCc2cn3cc(C(F)(F)F)ccc3n2)ncn1 [Example 329, N^4-((1-amino-5,7-dimethylisoquinolin-6-yl)methyl)-N^6-((6-(trifluoromethyl)imidazo[1,2-a]pyridin-2-yl)methyl)pyrimidine-4,6-diamine]"
5,> 1000 nM,"Cc1cc2c(Nc3cc4c(cn3)nnn4Cc3cn4cc(C5CC5)ccc4n3)nccc2c(C)c1CN [Example 502, 6-((l2-azanyl)methyl)-N-(1-((6-cyclopropylinmidazo[1,2-a]pyridin-2-yl)methyl)-1H-[1,2,3]triazolo[4,5-c]pyridin-6-yl)-5,7-dimethylisoquinolin-1-amine]"
6,10 to 100 nM,"Cc1cc2c(N)nccc2c(C)c1CNc1cc(NCc2ccc(OC3(C(=O)N(C)C)CC3)cc2)ncn1 [Example 357, 1-(4-( ((6-(((1-amino-5,7-dimethylisoquinolin-6-yl)methyl)amino)pyrimidin-4-yl)amino)methyl)phenoxy)-N,N-dimethylcyclopropane-1-carboxamide, formic acid salt]"
7,100 to 1000 nM,"Cc1cc2c(N)nccc2c(C)c1CNC(=O)c1cnn(C(F)(F)c2ccccc2)c1 [Example I-472, N-((1-amino-5,7-dimethylisoquinolin-6-yl)methyl)-1-(difluoro(phenyl)methyl)-1H-pyrazole-4-carboxamide]"
8,10 to 100 nM,"Cc1cc2c(N)nccc2c(C)c1CNC(c1cnn(Cc2ccc(Cn3ccccc3=O)cc2)c1)C(F)(F)F (stereo not drawn) [Example I-471, 1-(4-((4-(1-(((1-amino-5,7-dimethylisoquinolin-6-yl)methyl)amino)-2,2,2-trifluoroethyl)-1H-pyrazol-1-yl)methyl)benzyl)pyridin-2(1H)-one]"
9,> 1000 nM,"Cc1nnc(Cc2ccc(CNc3cc(NCc4c(C)cc5c(N)nccc5c4C)ncn3)cc2)s1 [Example 343, N^4-((1-amino-5,7-dimethylisoquinolin-6-yl)methyl)-N^6-(4-((5-methyl-1,3,4-thiadiazol-2-yl)methyl)benzyl)pyrimidine-4,6-diamine]"
10,< 1 nM,"Cc1cc2c(N)nccc2c(C)c1CNC(=O)c1cn(Cc2ccc(CC(=O)N3CC4CC4C3)cc2)cc1F (stereo not drawn) [Example I-479, 1-(4-(2-(3-azabicyclo[3.1.0]hexan-3-yl)-2-oxoethyl)benzyl)-N-((1-amino-5,7-dimethylisoquinolin-6-yl)methyl)-4-fluoro-1H-pyrrole-3-carboxamide]"
11,> 1000 nM,"Cc1cc2c(N)nccc2c(C)c1CN1C(=O)c2ncc(OCc3cn4cc(C5CC5)ccc4n3)cc21 [Example 494, 7-((1-amino-5,7-dimethylisoquinolin-6-yl)methyl)-4-((6-cyclopropylimidazo[1,2-a]pyridin-2-yl)methoxy)-2,7-diazabicyclo[4.2.0]octa-1,3,5-trien-8-one]"
